# Test results from patent publication US20250000869A1, “TOPICAL COMPOSITIONS OF 2-PHENYL-3, 4-DIHYDROPYRROLO [2, L-F] [1, 2, 4] TRIAZINONE DERIVATIVES AND USES THEREOF” (TOPADUR PHARMA AG, priority 2021, published 2025).
# Where two headings read alike, the source gives them in different places.
# Tests used:
# Plasma protein binding = assay type: in vitro ADME; conditions: mouse, mice, read-out: unbound fraction (fu), plasma protein binding
# [1] = Plasma concentrations after topical, on wound administration (satellite study, LC-MS/MS); assay type: in vivo, C57BL/6J mice
# Method: In order to address the systemic exposure following topical, on wound administration of Compound 1, in a satellite study, plasma concentrations of Compound 1 was measured. To this end, eight male C57BL/6J mice (12 weeks of age, body weight 26.8±0.4 g (Mean±SD)) underwent surgery for generation of one full thickness, excisional, cutaneous wounds, in an identical procedure as described above. The study was performed in C57BL/6J mice due to limited availability of uPAR−/− mice. As described before, Compound 1 (in form of Topical Composition A2) was added in a dose volume of 25 μl to the wounds as a single dose. The dose related to body weight was approximately 0.565 μg/kg (from a total of 25 μl of 1 μM Compound 1 per mouse). Peripheral venous blood was sampled from the tail tip (or by cardiac puncture for the final sampling) in four mice at time points (min) 1, 5, 15, 30, 60 post administration of Compound 1 and in another four mice at time points (h) 1, 2, 4, 6, 24 post administration of Compound 1. Plasma was generated and Compound 1 measured by LC-MS/MS. The LLOQ for Compound 1 was at 800 pg/ml corresponding to 1.32 nM. […] Considering the plasma protein binding of Compound 1 in mice with unbound fractions (fu) of 0.08% for Compound 1 the unbound plasma concentrations should have been <[…] for Compound 1, corresponding to <[…] for Compound 1 when extrapolated to administration to two wounds per mice as this was done in the main efficacy study, under the assumption of dose linearity.
# uPAR−/− mice = assay: Healing of full thickness excisional cutaneous wounds after topical, on wound administration; assay type: in vivo
# Text: The urokinase-type plasminogen activator receptor deficient (uPAR−/−) mouse that reproduces cardinal features of SSc (dermal) vasculopathy and fibrosis is an animal model of systemic sclerosis that is considered as disease-relevant. The uPAR−/− mouse integrates apoptosis of dermal endothelial cells, a decreased density of dermal microvessels and endothelial to mesenchymal transition reflecting vasculopathy with dermal thickening, collagen accumulation, enhanced myofibroblast counts reflecting skin fibrosis. uPAR−/− induces and develops dermal and pulmonary fibrosis (Manetti M et al. Ann Rheum Dis. (2014) 73:1700-1709; Manetti M et al Ann Rheum Dis. (2017) 76:924-934; Schniering J et al., (2019) In Atlas of Ulcers in Systemic Sclerosis. Diagnosis and Management. Matucci-Cerinic M and Denton C P (eds). Springer, Chain, Switzerland, pp. 27-37).
# uPAR−/− mice were bred from mating of heterozygotes (uPAR+/−; obtained from Institute for Translational Neurology and Neurology Clinics, University of Munster, Germany). Pups were genotyped and uPAR−/− mice obtained at Mendelian frequency. Two full thickness, excisional cutaneous wounds (6 mm diameter corresponding to an area of 28.3 mm^2) were generated, symmetrically to the dorsum midline. To this end, at the day before surgery, mice were anaesthetized with Isoflurane and their dorsum was shaved using Veet® depilatory cream and clippers. At the next following day, preoperative analgesia was administered at 30 min before surgery consisting of 0.1 mg/kg of Buprenorphine and 5 mg/kg of Ketoprofen. Animals were anesthetized with Isoflurane. Two full thickness wounds (including epidermis, dermis, hypodermis, panniculus carnosus; depth about 500 μm) of 6 mm diameter each were created using a biopsy punch and scissors each with identical, at least 10 mm distance left or right from the dorsum midline. To minimize wound contraction, wounds were splinted using a silicon splint (Grace Bio-Labs silicone wound splints, red with suture sites, outer diameter×inner diameter×thickness 14 mm×7 mm×0.5 mm). Splints were kept in place using six interrupted surgical sutures (6/0 polyamide-Ethylon) and Superglue (ethyl 2-cyanoacrylate glue) (Park S A et al. Wound Repair Regen. (2014) 22(3):368-380; Park S A et al. Wound Repair Regen. (2015) 23(2):251-261).
# The cutaneous ulcers and the splint were protected using a plastic cover maintained using a non-woven adhesive dressing (Hypafix® (Smith & Nephew)) and a semiocclusive adhesive transparent dressing (Tegaderm™, (3M™)). Ketoprofen (5 mg/kg) and Buprenorphine (0.05 mg/kg) were administered for 3 days and then Buprenorphine (0.05 mg/kg) as needed. The estimated volume of a cutaneous ulcer was 28.3 mm^2 area×0.5 mm depth=14.15 mm^3 or 14.15 μl. […]
# [2] = Solubility screening of Compound 1 in various solvents/solvent systems; assay type: physicochemical; conditions: read-out: Determined Solubility
# Text: A solubility screening of Compound 1 was effected. […] In general, three potential approaches where covered: i) polar organic co-solvents, ii) solubilization by surfactants and iii) oils which may, in particular, serve as a basis of an emulsion gel. A phosphate buffer of pH 6.5 with low molarity was used as this salt and pH is suitable for application on wounds. It is of note that the resulting pH of the screened systems is about 7.3.
compound,measurement,setting,value
"CCCOc1ccc(S(=O)(=O)N2CCC(CCO[N+](=O)[O-])CC2)cc1-c1nn2c(CCC)c(/C=N/O)c(C)c2c(=O)[nH]1 [Compound 1, 2-[1-(3-{6-[(1E)-(hydroxyimino)methyl]-5-methyl-4-oxo-7-propyl-3H,4H-pyrrolo[2,1-f][1,2,4]triazin-2-yl}-4-propoxybenzenesulfonyl)piperidin-4-yl]ethyl nitrate]",fraction unbound,Plasma protein binding,0.0008
same,unbound plasma concentration extrapolated to two wounds per mice,[1]; assumption of dose linearity,< 2120 nM
same,unbound plasma concentration,"[1]; calculated from LLOQ and fu, one wound per mouse",< 1060 nM
same,plasma concentration of Compound 1,"[1]; single on wound dose 25 μl Topical Composition A2 (approx. 0.565 μg/kg), 1 min to 24 h, all time points and mice, LLOQ 800 pg/ml",< 1.32 nM
same,acceleration of wound closure versus Vehicle,"uPAR−/− mice; uPAR−/− mice, based on means of % Wound Closure from day 5 to day 8",about 1 day
same,AUEC for % wound closure compared to vehicle,"uPAR−/− mice; uPAR−/− mice, day 0-7",significant increase
same,healing of full thickness excisional cutaneous wounds (conclusion),"uPAR−/− mice; uPAR−/− mice, once daily topical, in form of Topical Composition A2",improved
same,part of wound closure delay associated with uPAR deficiency restored,"uPAR−/− mice; uPAR−/− vs uPAR+/+ mice, from AUEC (Table 6)",about half
same,solubility,"[2]; 1% poloxamer 407 in phosphate buffer, pH 6.5, aqueous with cosolvent or surfactant or cyclodextrin, 1% poloxamer 407 in PB, PB = Phosphate buffer 10 mmol/L pH 6.5",270 µg/mL
same,solubility,"[2]; 1% polysorbate 80 in phosphate buffer, pH 6.5, aqueous with cosolvent or surfactant or cyclodextrin, 1% polysorbate 80 in PB, PB = Phosphate buffer 10 mmol/L pH 6.5",77 µg/mL
same,solubility,"[2]; 3% polysorbate 80 in phosphate buffer, pH 6.5, aqueous with cosolvent or surfactant or cyclodextrin, 3% polysorbate 80 in PB, PB = Phosphate buffer 10 mmol/L pH 6.5",139 µg/mL
same,solubility,"[2]; 8% polysorbate 80 in phosphate buffer + 3% benzyl alcohol, pH 6.5, aqueous with cosolvent or surfactant or cyclodextrin, 8% polysorbate 80 in PB + 3% benzyl alcohol, PB = Phosphate buffer 10 mmol/L pH 6.5",56 µg/mL
same,solubility,"[2]; 8% polysorbate 80 in phosphate buffer + 10% MCT, pH 6.5, aqueous with cosolvent or surfactant or cyclodextrin, 8% polysorbate 80 in PB + 10% MCT, PB = Phosphate buffer 10 mmol/L pH 6.5",37 µg/mL
same,solubility,"[2]; 8% polysorbate 80 in phosphate buffer + 10% ethanol, pH 6.5, aqueous with cosolvent or surfactant or cyclodextrin, 8% polysorbate 80 in PB + 10% ethanol, PB = Phosphate buffer 10 mmol/L pH 6.5",43 µg/mL
same,solubility,"[2]; 8% polysorbate 80 in phosphate buffer + 10% poloxamer 407, pH 6.5, aqueous with cosolvent or surfactant or cyclodextrin, 8% polysorbate 80 in PB + 10% poloxamer 407, PB = Phosphate buffer 10 mmol/L pH 6.5",63 µg/mL
same,solubility,"[2]; 8% polysorbate 80 in phosphate buffer, pH 6.5, aqueous with cosolvent or surfactant or cyclodextrin, 8% polysorbate 80 in PB, PB = Phosphate buffer 10 mmol/L pH 6.5",67 µg/mL
same,solubility,"[2]; 10% poloxamer 407 in phosphate buffer, pH 6.5, aqueous with cosolvent or surfactant or cyclodextrin, 10% poloxamer 407 in PB, PB = Phosphate buffer 10 mmol/L pH 6.5",23.2 µg/mL
same,solubility,"[2]; PEG 400/phosphate buffer (30:70, vol:vol), pH 6.5, aqueous with cosolvent or surfactant or cyclodextrin, PEG 400/PB (30:70, vol:vol), PB = Phosphate buffer 10 mmol/L pH 6.5",1 µg/mL
same,solubility,"[2]; PEG 400/phosphate buffer (70:30, vol:vol), pH 6.5, aqueous with cosolvent or surfactant or cyclodextrin, PEG 400/PB (70:30, vol:vol), PB = Phosphate buffer 10 mmol/L pH 6.5",110 µg/mL
same,solubility,"[2]; isopropyl myristate (IPM), oil or lipid, Isopropyl myristate (IPM)",93 µg/mL
same,solubility,"[2]; medium chain triglycerides (MCT), oil or lipid, Medium chain triglycerides (MCT)",282 µg/mL
same,solubility,"[2]; octyldodecanol (Kollicream OD), oil or lipid, Octyldodecanol (Kollicream OD)",28 µg/mL
same,solubility,"[2]; pH 6.5, aqueous with cosolvent or surfactant or cyclodextrin, PEG 400/PB (30:70, vol:vol) + 3% benzyl alcohol, PB = Phosphate buffer 10 mmol/L pH 6.5",8 µg/mL
same,solubility,"[2]; pH 6.5, aqueous with cosolvent or surfactant or cyclodextrin, PEG 400/PB (30:70, vol:vol) + 3% polysorbate 80, PB = Phosphate buffer 10 mmol/L pH 6.5",20 µg/mL
same,solubility,"[2]; pH 6.5, aqueous with cosolvent or surfactant or cyclodextrin, PEG 400/PB (30:70, vol:vol) + 10% poloxamer 407, PB = Phosphate buffer 10 mmol/L pH 6.5",54 µg/mL
same,solubility,"[2]; polyethylene glycol PEG 400, organic solvent or mixture, Polyethylene glycol PEG 400",10500 µg/mL
